Read-outs that look alike come from different tables or passages of the source.
Tested on: T1, synaptosomal proteome
T1 construct: from tissue; host or cells: brain synaptosomes of male C57/B6 mice
Format: binding, mouse
Experimental: Synaptosomes were resuspended to 1 mg of protein/ml in HEPES buffer medium (in mM: 140 NaCl, 5 KCl, 5 NaHCO3, 1.2 NaH2PO4, 1 MgCl2, 10 glucose, and 10 HEPES (pH 7.4)). […] The samples were allowed to equilibrate for 5 min before being transferred to a parafilm-sealed 1-mm path length quartz cuvette. The sample was then irradiated for 20 min at a peak bandwidth of 350 nm (Rayonet RPR-3500 lamp) ∼6 cm from the light source. Non-irradiated samples were left in the dark at ambient temperature (22–25 °C) for 20 min. All remaining procedures were conducted with restricted light exposure.
To 750 μg of photolabeled or control synaptosome samples, 40 μl of 10% SDS and 2 μl of 5 mM DTT in water were added. Samples were then vortexed, heated for 10 min at 65 °C, and then briefly cooled. Final concentrations of 150 μM azide-biotin (Click Chemistry Tools), 2 mM tris(3-hydroxypropyltriazolylmethyl)amine (Sigma), 1 mM ascorbic acid (Sigma), and 1 mM CuSO4·5H2O (Sigma) were added to each sample and vortexed vigorously. The samples were left in the dark at ambient temperature (22–25 °C) for 1 h with mild agitation. Directly to each sample 4× volume chilled methanol, 1.5× chilled chloroform, and 3× chilled double distilled H2O were added. Samples were vortexed vigorously and centrifuged at 1,400 × g for 30 min at 4 °C. Both liquid layers were carefully removed, and the protein pellet was washed with 2 ml of 1:1 (v/v) chilled methanol/chloroform. Samples were centrifuged at 3,500 × g for 30 min at 4 °C. Protein pellets were briefly air-dried before further processing.
750 μg of biotin-conjugated protein sample was resuspended in 500 μl of 25 mM NH4HCO3 and 6 M urea in water. Next, 150 μl of 5% Triton X-100 in water, 50 μl of 10% SDS in water, and 1.5 μl of 0.5 M DTT were added. The samples were heated for 15 min at 65 °C. After briefly cooling, 14 μl of 0.5 M iodoacetamide in water was added, and the sample was left in the dark for 45 min. […] The supernatant was diluted to 4 ml with PBS, and 2 ml of PBS containing 100 μl of 50% streptavidin-agarose resin (Thermo Scientific) was added. Biotinylated proteins within the sample were captured over resin overnight at 4 °C with mild agitation. The resin was first washed with 6 ml of 1% SDS in PBS, and then 7 ml of 0.1 M urea in PBS followed by 10 ml of PBS. The resin underwent a final wash with 0.9 ml of 50 mM Tris-HCl and 1 mM CaCl2 in water (pH 8.0) and then resuspended in 200 μl of 50 mM Tris-HCl, 1 mM CaCl2 in water (pH 8.0), and 2 μg of porcine sequencing grade trypsin (Promega). Samples were digested overnight at 37 °C. Samples were then centrifuged at 2,000 × g for 4 min, and digest supernatant was decanted. Beads were washed in 100 μl of PBS centrifuged at 5,200 × g for 5 min, and the wash was combined with the digest supernatant. To the combined sample, trifluoroacetic acid (TFA) was added to 0.4% (v/v) or until pH <2. The sample was desalted with Oasis C18 10-mg columns (Waters) as described previously ([66]). The eluted sample was dried by speed vac and resuspended in 0.1 M HEPES buffer (pH 8.5). […] Appropriate corresponding TMTsixplex^TM-labeled samples were pooled and dried by speed vac. The combined samples were resuspended in 0.5% acetic acid in water and pH-corrected with acetic acid until pH was <2. 40 μg of protein was desalted with C18 stage tips prepared in-house and dried by speed vac.
Samples were resuspended in 10 mM KH2PO4 (pH 2.6), 30% acetonitrile (v/v) in water, and fractionated by off-line strong cation exchange chromatography prior to mass spectrometry (MS) analysis similar to as reported previously ([66]). The full synaptosome proteome control was prepared similarly without TMTsixplex^TM labeling.
All TMT samples were analyzed with three-stage mass spectrometry (MS3) TMTsixplex^TM quantification workflow as described previously ([34]).

[1] = protein A2AGI3 Neuroligin-3 (Nlgn3)
[2] = protein A2AWI7 Endophilin-B2 (Sh3glb2)
[3] = protein D3Z5T2 Armadillo repeat-containing protein 10 (Armc10)
[4] = protein E9Q3V6 Septin-2 (Sept2)
[5] = protein F7C846 Metaxin-1 (Mtx1)
[6] = protein F8WGD9 1-acyl-sn-glycerol-3-phosphate acyltransferase epsilon (Agpat5)
[7] = protein G3UYZ1 Immunoglobulin superfamily member 8 (Igsf8)
[8] = protein G5E829 Plasma membrane calcium-transporting ATPase 1 (Atp2b1)
[9] = protein H3BL44 Calcium-transporting ATPase (Atp2c1)
[10] = protein O09111 NADH dehydrogenase [ubiquinone] 1 beta subcomplex subunit 11, mitochondrial (Ndufb11)
[11] = protein O35114 Lysosome membrane protein 2 (Scarb2)
[12] = protein O35526 Syntaxin-1A (Stx1a)
[13] = protein O35874 Neutral amino acid transporter A (Slc1a4)
[14] = protein O35963 Ras-related protein Rab-33B (Rab33b)
[15] = protein O55022 Membrane-associated progesterone receptor component 1 (Pgrmc1)

Compound: CC(C)c1cccc(C(C)C)c1O [propofol, 2,6-diisopropylphenol, reference compound]
- % propofol protection (D3Z2J6 Tmx2): 70%
- % propofol protection (E9PUL5 Prrt2): 72%
- Log2( Mean 'UV/ UV+propofol') (E9PUL5 Prrt2): 1.75
- % propofol protection (P07724 Alb): 75%
- Log2( Mean 'UV/ UV+propofol') (P07724 Alb): 1.84
- % propofol protection (P12787 Cox5a): 76%
- % propofol protection (P16332 Mut): 72%
- Log2( Mean 'UV/ UV+propofol') (P16332 Mut): 1.79
- Log2( Mean 'UV/ UV+propofol') (P23242 Gja1): 1.15
- Log2( Mean 'UV/ UV+propofol') (P35279 Rab6a): 1.22
- % propofol protection (P51150 Rab7a): 73%
- Log2( Mean 'UV/ UV+propofol') (P51150 Rab7a): 1.72
- % propofol protection (P54071 Idh2): 71%
- Log2( Mean 'UV/ UV+propofol') (P54071 Idh2): 1.75
- Log2( Mean 'UV/ UV+propofol') (P61620 Sec61a1): 1.22
- % propofol protection (P62812 Gabra1): 70%
- Log2( Mean 'UV/ UV+propofol') (P63037 Dnaja1): 1.24
- % propofol protection (P63044 Vamp2): 71%
- % propofol protection (P63213 Gng2): 75%
- Log2( Mean 'UV/ UV+propofol') (P63213 Gng2): 1.98
- % propofol protection (P97445 Cacna1a): 70%
- % propofol protection (Q5SW88 Rab1): 73%
- Log2( Mean 'UV/ UV+propofol') (Q5SW88 Rab1): 1.71
- % propofol protection (Q8BLF1 Nceh1): 71%
- Log2( Mean 'UV/ UV+propofol') (Q8BLF1 Nceh1): 1.72
- % propofol protection (Q8BXV2 Bri3bp): 75%
- Log2( Mean 'UV/ UV+propofol') (Q8BXV2 Bri3bp): 1.93
- % propofol protection (Q8C3X2 Ccdc90b): 75%
- Log2( Mean 'UV/ UV+propofol') (Q8C3X2 Ccdc90b): 1.94
- % propofol protection (Q8K1Z0 Coq9): 73%
- Log2( Mean 'UV/ UV+propofol') (Q8K1Z0 Coq9): 1.79
- % propofol protection (Q8K221 Arfip2): 70%
- % propofol protection (Q8R5J9 Arl6ip5): 75%
- Log2( Mean 'UV/ UV+propofol') (Q8R5J9 Arl6ip5): 1.93
- % propofol protection (Q9CQQ7 Atp5f1): 70%
- % propofol protection (Q9CQS4 Slc25a46): 76%
- Log2( Mean 'UV/ UV+propofol') (Q9CXJ4 Abcb8): 1.18
- % propofol protection (Q9CZS1 Aldh1b1): 75%
- Log2( Mean 'UV/ UV+propofol') (Q9CZS1 Aldh1b1): 1.96
- % propofol protection (Q9D2P8 Mobp): 76%
- Log2( Mean 'UV/ UV+propofol') (Q9D5T0 Atad1): 1.22
- % propofol protection (Q9D6D0 Slc25a27): 75%
- % propofol protection (Q9D6K8 Fundc2): 71%
- Log2( Mean 'UV/ UV+propofol') (Q9D6K8 Fundc2): 1.61
- % propofol protection (Q9DAS9 Gng12): 76%
- % propofol protection (Q9DC70 Ndufs7): 70%
- Log2( Mean 'UV/ UV+propofol') (Q9EP69 Sacm1l): 1.23
- % propofol protection (Q9WV54 Asah1): 72%
- Log2( Mean 'UV/ UV+propofol') (Q9WV54 Asah1): 1.72
- Log2( Mean 'UV/ UV+propofol') (Q9Z2I0 Letm1): 1.22
- % propofol protection (Q99J08 Sec14l2): 72%
- Log2( Mean 'UV/ UV+propofol') (Q99J08 Sec14l2): 1.67
- Log2( Mean 'UV/ UV+propofol') (Q99JY8 Ppap2b): 1.22
- % propofol protection (Q00915 Rbp1): 75%
- Log2( Mean 'UV/ UV+propofol') (Q00915 Rbp1): 1.96
- % propofol protection (Q64133 Maoa): 73%
- Log2( Mean 'UV/ UV+propofol') (Q64133 Maoa): 1.78
- % propofol protection [1]: 58%
- Log2( Mean 'UV/ UV+propofol') [1]: 1.22
- % propofol protection [2]: 56%
- Log2( Mean 'UV/ UV+propofol') [2]: 1.04
- % propofol protection [3]: 55%
- Log2( Mean 'UV/ UV+propofol') [3]: 1.05
- % propofol protection [4]: 54%
- Log2( Mean 'UV/ UV+propofol') [4]: 1.08
- % propofol protection [5]: 55%
- Log2( Mean 'UV/ UV+propofol') [5]: 1.11
- % propofol protection [6]: 57%
- Log2( Mean 'UV/ UV+propofol') [6]: 1.12
- % propofol protection [7]: 52%
- Log2( Mean 'UV/ UV+propofol') [7]: 0.97
- % propofol protection [8]: 55%
- Log2( Mean 'UV/ UV+propofol') [8]: 1.01
- % propofol protection [9]: 51%
- Log2( Mean 'UV/ UV+propofol') [9]: 0.88
- % propofol protection [10]: 56%
- Log2( Mean 'UV/ UV+propofol') [10]: 1.15
- % propofol protection [11]: 53%
- Log2( Mean 'UV/ UV+propofol') [11]: 1.00
- % propofol protection [12]: 57%
- Log2( Mean 'UV/ UV+propofol') [12]: 1.15
- % propofol protection [13]: 53%
- Log2( Mean 'UV/ UV+propofol') [13]: 1.03
- % propofol protection [14]: 55%
- Log2( Mean 'UV/ UV+propofol') [14]: 1.06
- % propofol protection [15]: 51%
- Log2( Mean 'UV/ UV+propofol') [15]: 1.00
